Laboratory results from patent publication US20160310613A1, “METHODS AND COMPOSITIONS FOR OVERCOMING DRUG-RESISTANCE IN CANCER BY TARGETED DELIVERY OF PRO-DRUG-NANO-POLYMERS” (priority 2015, published 2016).
In brackets after ≈: the same amount, converted by molar mass.

Columns and labels:
[1] = tested on: MCF-7 MDR Doxorubicin resistant cells; assay: Epi-fluorescent microscopy of doxorubicin delivery and retention
[2] = tested on: SKOV-3 sensitive Ovarian cancer cells; assay: cells; settings: Homo sapiens, SK-OV-3, read-out: IC50 value in SKOV-3 sensitive cells
Description: (§1) Human ovarian cancer (SKOV-3) sensitive cells were grown in six well plates. Aliquots of 5000 cells/well were seeded in the cell culture treated 96 well plates and were grown for 24 hours. Cultured cells (SKOV-3) were incubated with bispecific anti-Her-2 Affibody-anti-DTPA antibody at a concentration of 20 or 40 μg/ml for 24 hours at 37° C. […] After 24 h incubation at 37° C., viability was assessed by Trypan Blue exclusion test using CellTiter Blue® (Promega, Madison, Wis.) following the manufacturer's protocol. Briefly, media was removed from plates containing cells incubated with agent-polymer conjugates. The plates were washed 2× with 200 μl of complete medium and then incubated with 50 μl of 1:50 dilution of CellTiter Blue® reagent for 2 hours. Cell viability was then evaluated by measuring the fluorescence (excitation 530 nm, emission 590 nm) using a Synergy HT multi-21 detection microplate reader (Biotek, Winooski, Vt.). Cells treated with complete media alone were used as controls to calculate the 100% cell viability and the studies were carried out in triplicates in at least 3 different assays. […] The above studies were repeated for 48 h incubation time.

[3] = tested on: SKOV-3 TR resistant Ovarian cancer cells; assay: cells; assay type: cell-based
Description: Human ovarian cancer (SKOV-3 TR) resistant cells were cultured using the same protocol described for culturing SKOV-3 TR resistant cells in Example 8 above. Cultured cells (SKOV-3 TR) were incubated with bispecific anti-Her-2 Affibody-anti-DTPA antibody at a concentration of 20 μg/ml for 24 hours at 37° C. […] After 24-48 h incubation at 37° C., viability was assessed by Trypan Blue exclusion test using CellTiter Blue® (Promega, Madison, Wis.) following the manufacturer's protocol as described above in Example 8.
SKOV-3 sensitive and SKOV-3 TR resistant Ovarian cancer cells were cultured using the same protocol described in Examples 8 and 9 above. Cultured cells were incubated with bispecific anti-Her-2 Affibody-anti-DTPA antibody.

[4] = tested on: SKOV-3 sensitive Ovarian cancer cells; settings: cells pretargeted with anti-HER2/neu affibody, FIG. 7
Description: as §1

`COc1cccc2c1C(=O)c1c(O)c3c(c(O)c1C2=O)C[C@@](O)(C(=O)CO)C[C@@H]3O[C@H]1C[C@H](N)[C@H](O)[C@H](C)O1` [free Dox, doxorubicin] was tested. Which “Doxorubicin fluorescence in cells” value ([1]; 15 μg/ml, incubated 5 h, FIG. 8A) did it give?
Its value is “nuclear sequestration”.

And the “Doxorubicin uptake in cells” value ([1]; incubated 1 h, then Dox free medium 4 h, FIG. 8B)?
Its value is “less Dox uptake occurred”.

Which IC50 [2] does the source give for `CC(=O)O[C@H]1C(=O)[C@@]2(C)[C@H]([C@H](OC(=O)c3ccccc3)[C@]3(O)C[C@H](OC(=O)[C@H](O)[C@@H](NC(=O)c4ccccc4)c4ccccc4)C(C)=C1C3(C)C)[C@]1(OC(C)=O)CO[C@@H]1C[C@@H]2O` [free PTXL, Paclitaxel] here?
Its IC50 is 0.089 µg/mL (≈ 0.104 µM).

And the IC50 ([3]; Homo sapiens, SKOV3TR, free drug, FIG. 7)?
Its IC50 is 0.936 µg/mL (≈ 1.1 µM).

What about the “IC50 in SKOV-3 TR resistant cells relative to SKOV-3 sensitive cells” value ([3]; ratio resistant/sensitive) of the same compound?
Its value is “about 10 times higher”.

What does the source list for “DTPA-Paclitaxel-Poly Glutamic acid [D-PTXL-PGA]”?
IC50 value in paclitaxel sensitive ovarian cancer cells [4]: 0.089 µg/mL; Amount needed to obtain 50% cell killing in SKOV-3 TR cells relative to free PTXL ([3]; SKOV-3 TR cells): 5 times less; IC50 value in paclitaxel resistant ovarian cancer cells ([3]; cells pretargeted with anti-HER2/neu affibody, FIG. 7): 0.069 µg/mL; Concentration needed to obtain 50% cell killing in SKOV-3 TR resistant relative to SKOV-3 sensitive cells ([3]; ratio resistant/sensitive): 2 time more

For “DTPA-Doxorubicin-Poly Glutamic acid [D-Dox-PGA]”, which “Doxorubicin retention in cells” value ([1]; pretargeted with bispecific biotinylated-anti-DTPA antibody, 1 h, then Dox free media 4 h, FIG. 8C) is on record?
Its value is “more Dox is retained”.
